# Data taken from patent US20080300138A1, “Dioxazinyl-Substituted Thienylsulphonylaminocarbonyl Compounds” (priority 2004, published 2008).
# Key:
# [1] = test system: Sinapis; assay: Post-emergence test/greenhouse; format: in vivo; conditions: 80 g of ai/ha, WP sprayed at one-leaf stage, scored visually after about 3 weeks, 100% = plants have died, 0% = like control plants
# Experimental: (§1) Seeds of mono- and dicotyledonous weed and crop plants are placed in sandy loam soil in wood fiber pots, covered with soil and cultivated in a greenhouse under good growth conditions. 2 to 3 weeks after sowing, the trial plants are treated at the one-leaf stage. The test compounds, formulated as wettable powders (WP), are sprayed at various dosages with a water application rate of 800 I/ha (converted) and with addition of 0.2% of welting agent onto the green parts of the plants. After the trial plants have stood in the greenhouse for about 3 weeks under optimum growth conditions, the effect of the products is scored visually in comparison to untreated controls (herbicidal effect in percent (%): 100% effect=plants have died, 0% effect=like control plants).
# [2] = test system: Amaranthus; assay: Post-emergence test/greenhouse; format: in vivo; conditions: 80 g of ai/ha, WP sprayed at one-leaf stage, scored visually after about 3 weeks, 100% = plants have died, 0% = like control plants
# Experimental: as §1
# [3] = test system: Lolium; assay: Post-emergence test/greenhouse; format: in vivo; conditions: 80 g of ai/ha, WP sprayed at one-leaf stage, scored visually after about 3 weeks, 100% = plants have died, 0% = like control plants
# Experimental: as §1
# [4] = test system: Echinochloa; assay: Post-emergence test/greenhouse; format: in vivo; conditions: 80 g of ai/ha, WP sprayed at one-leaf stage, scored visually after about 3 weeks, 100% = plants have died, 0% = like control plants
# Experimental: as §1
# [5] = test system: Setaria; assay: Post-emergence test/greenhouse; format: in vivo; conditions: 80 g of ai/ha, WP sprayed at one-leaf stage, scored visually after about 3 weeks, 100% = plants have died, 0% = like control plants
# Experimental: as §1
# [6] = test system: Cyperus; assay: Post-emergence test/greenhouse; format: in vivo; conditions: 80 g of ai/ha, WP sprayed at one-leaf stage, scored visually after about 3 weeks, 100% = plants have died, 0% = like control plants
# Experimental: as §1
# [7] = test system: Stellaria; assay: Post-emergence test/greenhouse; format: in vivo; conditions: 80 g of ai/ha, WP sprayed at one-leaf stage, scored visually after about 3 weeks, 100% = plants have died, 0% = like control plants
# Experimental: as §1
# [8] = test system: weeds; assay: Post-emergence test (summary in words); format: in vivo, mono- and dicotyledonous weed plants; conditions: greenhouse, result in words
# Experimental: as §1
SMILES,"herbicidal effect in percent, Sinapis [1]","herbicidal effect in percent, Amaranthus [2]","herbicidal effect in percent, Lolium [3]","herbicidal effect in percent, Echinochloa [4]","herbicidal effect in percent, Setaria [5]","herbicidal effect in percent, Cyperus [6]","herbicidal effect in percent, Stellaria [7]",effectiveness against weeds [8]
COc1nn(C)c(=O)n1C [Example 6],80%,90%,90%,80%,80%,80%,90%,highly effective
CCOc1nn(C)c(=O)n1C [Example 7],80%,90%,90%,90%,90%,90%,90%,highly effective
"COc1nc(C)nc(NC(=O)NS(=O)(=O)c2c(C3=NOCCO3)csc2C)n1 [Example 1, N-(4-methoxy-6-methyl-1,3,5-triazin-2-yl)-N′-(4-(5,6-dihydro-[1,4,2]-dioxazin-3-yl)-2-methylthien-3-ylsulfonyl)urea]",90%,90%,90%,90%,90%,100%,90%,highly effective
